How the values were obtained:
[1] = Solid stability test of crystal form A (influencing factors and accelerated conditions, HPLC/XRPD); assay type: physicochemical
Method: 1.5 High Performance Liquid Chromatograph Method
Sample concentration: 0.5 mg/mL
The stability of the crystal form A of the compound represented by formula (I) was investigated according to the Guideline for Stability Testing of APIs and Formulations (Chinese Pharmacopoeia 2015 Edition IV General Rule 9001).
5 mg of the crystal form A of the compound represented by formula (I) was weighed separately, placed in a dry and clean glass bottle, in duplicate, spread into a thin layer, as a formal test sample, the two samples were placed under the test conditions of influencing factors (60° C., 92.5% relative humidity) and accelerated conditions (30° C./65% relative humidity, 40° C./75% relative humidity and 60° C./75% relative humidity), the samples were fully exposed, covered with aluminum foil and pierced with small holes. Sampling and analysis were performed on day 5, day 10, and 1 month. Samples placed under illumination (total illumination 1200000 Lux·hr, near ultraviolet 200 w·hr/m^2) were completely exposed at room temperature.

PI3Kα = target: T1, PI3Kα (Homo sapiens, UniProt P42336); assay: In vitro enzymatic activity test (ADP-Glo lipid kinase), PI3Kα wild type; assay type: biochemical; details: wild-type PI3Kα kinase; read-out: Wild type PI3Kα IC50
T1 construct: purchased Millipore 14-602-K
T1 sequence (P42336 whole entry): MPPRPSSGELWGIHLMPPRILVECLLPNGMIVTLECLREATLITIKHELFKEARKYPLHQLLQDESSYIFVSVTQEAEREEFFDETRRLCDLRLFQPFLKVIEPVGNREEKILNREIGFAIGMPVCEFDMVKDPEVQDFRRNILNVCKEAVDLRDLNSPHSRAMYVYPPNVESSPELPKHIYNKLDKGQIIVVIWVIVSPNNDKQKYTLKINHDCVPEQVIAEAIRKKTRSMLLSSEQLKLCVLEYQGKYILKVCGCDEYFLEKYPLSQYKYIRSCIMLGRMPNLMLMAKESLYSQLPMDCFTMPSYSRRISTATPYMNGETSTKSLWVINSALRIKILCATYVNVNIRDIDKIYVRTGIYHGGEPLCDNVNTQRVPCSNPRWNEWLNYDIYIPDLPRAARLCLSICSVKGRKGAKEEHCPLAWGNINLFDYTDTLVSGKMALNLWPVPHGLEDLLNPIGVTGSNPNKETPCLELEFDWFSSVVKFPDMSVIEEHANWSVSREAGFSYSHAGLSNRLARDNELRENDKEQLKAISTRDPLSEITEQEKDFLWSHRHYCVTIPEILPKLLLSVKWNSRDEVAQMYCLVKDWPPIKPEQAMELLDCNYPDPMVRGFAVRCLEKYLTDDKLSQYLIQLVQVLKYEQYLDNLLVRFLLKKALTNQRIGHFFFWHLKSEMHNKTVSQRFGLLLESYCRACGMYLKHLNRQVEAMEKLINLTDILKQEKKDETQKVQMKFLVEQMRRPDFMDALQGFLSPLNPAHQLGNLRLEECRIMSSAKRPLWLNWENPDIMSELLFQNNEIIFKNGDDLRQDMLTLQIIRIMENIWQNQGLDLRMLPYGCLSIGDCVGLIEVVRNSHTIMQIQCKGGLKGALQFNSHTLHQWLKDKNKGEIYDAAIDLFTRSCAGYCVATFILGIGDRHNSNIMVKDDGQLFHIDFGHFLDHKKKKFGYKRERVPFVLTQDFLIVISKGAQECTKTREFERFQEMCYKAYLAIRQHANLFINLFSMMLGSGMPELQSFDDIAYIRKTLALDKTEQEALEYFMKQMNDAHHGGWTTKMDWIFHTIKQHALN
T1 sequence (P27986 whole entry partner): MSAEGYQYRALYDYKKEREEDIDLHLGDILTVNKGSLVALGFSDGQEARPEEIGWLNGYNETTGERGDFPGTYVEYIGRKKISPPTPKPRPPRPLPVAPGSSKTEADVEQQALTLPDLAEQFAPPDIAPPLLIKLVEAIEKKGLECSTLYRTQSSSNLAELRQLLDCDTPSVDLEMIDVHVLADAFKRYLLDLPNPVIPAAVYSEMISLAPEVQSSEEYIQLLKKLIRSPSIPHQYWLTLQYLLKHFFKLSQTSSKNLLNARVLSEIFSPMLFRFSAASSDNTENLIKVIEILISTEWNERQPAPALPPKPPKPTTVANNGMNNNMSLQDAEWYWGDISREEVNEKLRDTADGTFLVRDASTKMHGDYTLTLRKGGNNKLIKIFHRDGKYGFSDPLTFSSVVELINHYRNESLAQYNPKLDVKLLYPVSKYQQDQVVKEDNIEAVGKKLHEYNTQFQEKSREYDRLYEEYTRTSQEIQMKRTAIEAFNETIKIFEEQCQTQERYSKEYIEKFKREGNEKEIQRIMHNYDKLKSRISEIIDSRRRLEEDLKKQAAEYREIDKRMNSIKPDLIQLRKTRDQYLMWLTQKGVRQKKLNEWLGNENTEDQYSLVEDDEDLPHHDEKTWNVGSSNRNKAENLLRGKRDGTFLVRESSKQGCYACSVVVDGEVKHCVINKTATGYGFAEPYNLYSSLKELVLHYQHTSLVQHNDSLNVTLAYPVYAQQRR
Method: (§1) The lipid kinase reaction was carried out in a suitable substrate and under ATP conditions, then the activity of the kinase was detected by ADP-Glo™ kit in two steps. Step 1: the kinase reaction was terminated, in which the residual ATP was completely removed and only ADP was retained; step 2: kinase detection reagent was added to convert ADP to ATP, accompanied by fluorescein/luciferase reaction. Finally, the fluorescence value output was converted into kinase activity.
(§2) Experimental Materials and Equipment:
(§3) 2) Kit: ADP-Glo™ lipid kinase and PIP2:3PS kit (Promega #V1792)
(§4) The reagent kit contains: 1 mM PIP2:3PS, 10× lipid dilution buffer, 1 M magnesium chloride, 10 mM ATP, 10 mM ADP, ADP-Glo reagent, detection buffer and detection substrate.
(§5) 3) Reaction plate: OptiPlate-384, white and transparent (PerkinElmer #6007299)
(§6) 1) 10× reaction buffer: 500 mM HEPES, pH 7.5, 500 mM NaCl, […]; BSA: 10% stock solution, self-made
(§7) 2) Final test system conditions: 1× reaction system: 50 mM of HEPES, 50 mM of NaCl, 3 mM of MgCl2, 0.01% BSA (freshly prepared on the day of experiment), 1% DMSO (v/v)+/−compound
(§8) 3) Reaction system: 3 μL of mixture of enzyme and substrate (1:1)+2 μL of ATP/MgCl2 mixture+5 μL of ADP-Glo reagent+10 μL of detection reagent.
(§9) The specific experimental operations were as follows: […]
(§10) (16) Fluorescence values were measured on the Envision instrument.

Mutant PI3Kα (H1047R) = Mutant PI3Kα (H1047R) (Homo sapiens, UniProt P42336, H1047R); assay: In vitro enzymatic activity test, mutant PI3Kα (H1047R); assay type: biochemical
Mutant PI3Kα (H1047R), sequence (P42336 whole entry H1047R): as the sequence (P42336 whole entry) above, with H1047R counted along it
Mutant PI3Kα (H1047R), sequence (P27986 whole entry partner): as the sequence (P27986 whole entry partner) above
Excerpt: The crystal form A of the compound represented by formula (I) has a strong inhibitory effect on both wild-type and mutant PI3Kα kinases. […] The crystal form A of the compound represented by formula (I) has excellent selectivity to the other three subtypes of PI3K, and its inhibitory activity against PI3Kα is 149/7.44/6.61 times higher than that of PI3Kβ/δ/γ, respectively. The specific experimental method was the same as experimental embodiment 8. […] The specific experimental method was the same as experimental embodiment 9.
as §1, §2, §3
The reagent kit contains: 1 mM PIP2:3PS, 10× lipid dilution buffer, 1 M magnesium chloride, 10 mM ATP, 10 mM ADP, ADP-Glo reagent, detection buffer and detection substrate. […]
as §10

PI3Kβ = target: T2, PI3Kβ (Homo sapiens, UniProt P42338); assay: In vitro enzymatic activity test (ADP-Glo lipid kinase), PI3Kβ; assay type: biochemical; details: inhibitory activity against PI3Kα relative to PI3Kβ
T2 construct: purchased Promega V1751
T2 sequence (P42338 whole entry): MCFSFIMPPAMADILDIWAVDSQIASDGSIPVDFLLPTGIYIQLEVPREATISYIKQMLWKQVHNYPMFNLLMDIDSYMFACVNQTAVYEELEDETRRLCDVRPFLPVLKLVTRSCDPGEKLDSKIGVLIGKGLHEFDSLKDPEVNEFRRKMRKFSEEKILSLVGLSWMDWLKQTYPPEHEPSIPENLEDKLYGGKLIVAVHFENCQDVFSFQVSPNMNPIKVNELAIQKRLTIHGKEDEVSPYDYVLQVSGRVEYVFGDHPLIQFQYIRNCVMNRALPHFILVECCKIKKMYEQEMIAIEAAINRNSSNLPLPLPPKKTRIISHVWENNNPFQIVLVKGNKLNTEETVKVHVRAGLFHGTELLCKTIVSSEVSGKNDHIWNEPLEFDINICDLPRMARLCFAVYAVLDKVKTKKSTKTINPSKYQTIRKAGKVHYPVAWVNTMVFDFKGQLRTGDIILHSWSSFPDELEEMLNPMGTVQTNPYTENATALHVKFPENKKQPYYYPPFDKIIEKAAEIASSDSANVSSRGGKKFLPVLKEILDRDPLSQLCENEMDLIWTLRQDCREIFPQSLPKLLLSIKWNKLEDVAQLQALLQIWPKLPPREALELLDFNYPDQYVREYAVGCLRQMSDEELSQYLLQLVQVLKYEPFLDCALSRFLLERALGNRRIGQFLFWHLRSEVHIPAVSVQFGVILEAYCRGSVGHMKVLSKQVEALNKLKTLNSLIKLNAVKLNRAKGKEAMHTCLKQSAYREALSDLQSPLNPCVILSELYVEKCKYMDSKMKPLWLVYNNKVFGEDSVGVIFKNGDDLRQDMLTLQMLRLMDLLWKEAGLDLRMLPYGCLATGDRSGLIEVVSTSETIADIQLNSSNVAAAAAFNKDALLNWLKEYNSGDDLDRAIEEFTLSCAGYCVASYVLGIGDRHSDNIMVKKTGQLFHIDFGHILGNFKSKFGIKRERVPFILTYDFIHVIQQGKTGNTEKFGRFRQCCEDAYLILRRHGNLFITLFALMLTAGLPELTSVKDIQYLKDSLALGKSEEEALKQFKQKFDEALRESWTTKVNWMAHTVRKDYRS
T2 sequence (P27986 whole entry partner): as the sequence (P27986 whole entry partner) above
Method: as §1, §2, §3, §4, §5, §6, §7, §8, §9, §10

PI3Kγ = target: T3, PI3Kγ (Homo sapiens, UniProt P48736); assay: In vitro enzymatic activity test (ADP-Glo lipid kinase), PI3Kγ; assay type: biochemical; details: inhibitory activity against PI3Kα relative to PI3Kγ
T3 construct: purchased Millipore 14-558-K
T3 sequence (P48736 whole entry): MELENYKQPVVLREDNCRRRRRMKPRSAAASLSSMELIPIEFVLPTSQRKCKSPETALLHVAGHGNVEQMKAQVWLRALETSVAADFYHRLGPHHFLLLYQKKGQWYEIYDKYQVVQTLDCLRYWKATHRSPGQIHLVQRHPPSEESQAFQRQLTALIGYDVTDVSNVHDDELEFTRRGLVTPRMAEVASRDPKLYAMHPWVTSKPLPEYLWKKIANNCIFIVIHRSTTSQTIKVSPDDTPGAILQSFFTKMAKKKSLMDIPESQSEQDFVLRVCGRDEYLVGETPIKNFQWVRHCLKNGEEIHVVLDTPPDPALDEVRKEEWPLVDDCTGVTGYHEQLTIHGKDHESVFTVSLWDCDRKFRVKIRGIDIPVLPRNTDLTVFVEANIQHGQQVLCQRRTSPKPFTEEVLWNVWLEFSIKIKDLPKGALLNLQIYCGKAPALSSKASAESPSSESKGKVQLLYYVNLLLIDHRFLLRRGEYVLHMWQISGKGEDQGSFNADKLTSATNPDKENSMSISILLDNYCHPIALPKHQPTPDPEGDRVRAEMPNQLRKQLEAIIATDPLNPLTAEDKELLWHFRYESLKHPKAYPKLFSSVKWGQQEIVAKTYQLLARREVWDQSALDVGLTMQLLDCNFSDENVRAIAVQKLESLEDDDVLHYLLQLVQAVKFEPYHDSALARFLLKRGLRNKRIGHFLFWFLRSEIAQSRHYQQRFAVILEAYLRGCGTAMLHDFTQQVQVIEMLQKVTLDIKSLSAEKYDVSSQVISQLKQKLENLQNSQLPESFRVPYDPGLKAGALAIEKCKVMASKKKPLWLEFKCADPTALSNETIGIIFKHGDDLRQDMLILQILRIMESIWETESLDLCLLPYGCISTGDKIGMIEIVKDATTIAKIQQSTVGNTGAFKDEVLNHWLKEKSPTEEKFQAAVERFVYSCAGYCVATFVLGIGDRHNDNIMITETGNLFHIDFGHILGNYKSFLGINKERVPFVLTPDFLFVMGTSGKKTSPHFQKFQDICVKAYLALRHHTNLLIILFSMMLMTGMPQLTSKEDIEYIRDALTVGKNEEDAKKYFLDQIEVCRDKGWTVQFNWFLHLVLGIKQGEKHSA
Method: as §1, §2, §3, §4, §5, §6, §7, §8, §9, §10

MDA-MB-468 = assay: Akt phosphorylation inhibition in MDA-MB-468 cells (high expression of PI3Kβ); assay type: cell-based; details: MDA-MB-468 cell line with high expression of PI3Kβ
Jeko-1 = assay: Akt phosphorylation inhibition in Jeko-1 cells (high expression of PI3Kδ); assay type: cell-based; details: Jeko-1 cell line with high expression of PI3Kδ
[2] = 30° C., relative humidity 65%, open, 1 month
[3] = 30° C., relative humidity 65%, open, Day 10
[4] = 40° C., relative humidity 75%, open, 1 month
[5] = 40° C., relative humidity 75%, open, Day 10
[6] = 60° C., relative humidity 75%, open, 1 month
[7] = 60° C., relative humidity 75%, open, Day 10
[8] = High humidity (25° C./92.5% relative humidity, open), Day 5
[9] = High humidity (25° C./92.5% relative humidity, open), Day 10
[10] = High temperature (60° C., open), Day 5
[11] = High temperature (60° C., open), Day 10
[12] = Illumination (total illumination 1.2 × 106 Lux · hr/near ultraviolet 200 w · hr/m^2, open), Day 10
[13] = In the absence of light, Day 10

## CNC(=O)[C@H](C)Cn1cnc2ccc(-c3cnc(OC)c(NS(=O)(=O)c4ccc(F)cc4F)c3)cc2c1=O
[1]; [2]
  Content of the crystal form A of the compound represented by formula (I) (%): 101.64%
  Total impurity content (%): 0.14%
[1]; [3]
  Content of the crystal form A of the compound represented by formula (I) (%): 104.28%
  Total impurity content (%): 0.14%
[1]; [4]
  Content of the crystal form A of the compound represented by formula (I) (%): 103.86%
  Total impurity content (%): 0.16%
[1]; [5]
  Content of the crystal form A of the compound represented by formula (I) (%): 103.79%
  Total impurity content (%): 0.15%
[1]; [6]
  Content of the crystal form A of the compound represented by formula (I) (%): 103.30%
  Total impurity content (%): 0.14%
[1]; [7]
  Content of the crystal form A of the compound represented by formula (I) (%): 103.63%
  Total impurity content (%): 0.14%
[1]; Day 0
  Content of the crystal form A of the compound represented by formula (I) (%): 103.08%
  Total impurity content (%): 0.14%
[1]; [8]
  Content of the crystal form A of the compound represented by formula (I) (%): 103.08%
  Total impurity content (%): 0.14%
[1]; [9]
  Content of the crystal form A of the compound represented by formula (I) (%): 103.95%
  Total impurity content (%): 0.14%
[1]; [10]
  Content of the crystal form A of the compound represented by formula (I) (%): 104.39%
  Total impurity content (%): 0.14%
[1]; [11]
  Content of the crystal form A of the compound represented by formula (I) (%): 102.00%
  Total impurity content (%): 0.14%
[1]; [12]
  Content of the crystal form A of the compound represented by formula (I) (%): 103.04%
  Total impurity content (%): 0.14%
[1]; [13]
  Content of the crystal form A of the compound represented by formula (I) (%): 102.57%
  Total impurity content (%): 0.15%
[1]; all test conditions of Table 7
  Stability (conclusion of the solid stability test): good stability
PI3Kα
  IC50: 1.8 nM
Mutant PI3Kα (H1047R)
  IC50: 0.69 nM
PI3Kβ
  Selectivity PI3Kα/β (kinase): 149 times
PI3Kγ
  Selectivity PI3Kα/γ (kinase): 6.61 times
MDA-MB-468
  Selectivity PI3Kα over PI3Kβ, Akt phosphorylation inhibitory activity in cells: 195 times
Jeko-1
  Selectivity PI3Kα over PI3Kδ, Akt phosphorylation inhibitory activity in cells: 23.0 times
